# Measured values: publication PMC4216168, “Ligand Binding and Activation of PPARγ by Firemaster® 550: Effects on Adipogenesis and Osteogenesis in Vitro” (Environmental Health Perspectives, 2014)
# Where two headings read alike, the source gives them in different places.
# Columns and labels:
# [1] = set-up: method as in Patisaul et al. 2013; Roberts et al. 2012; settings: in vivo and in vitro; ref Patisaul et al. 2013; Roberts et al. 2012; cited from earlier work
# [2] = molecular target: T1, human recombinant PPARγ ligand binding domain (LBD) (Homo sapiens, UniProt P37231); test: biochemical; settings: for binding to PPARγ LBD: over the concentration range tested (TBB 0.009–90 μM, TBPH 0.12–1,200 μM)
# T1 construct: purchased Invitrogen
# T1 sequence (P37231 238-503 limits assumed): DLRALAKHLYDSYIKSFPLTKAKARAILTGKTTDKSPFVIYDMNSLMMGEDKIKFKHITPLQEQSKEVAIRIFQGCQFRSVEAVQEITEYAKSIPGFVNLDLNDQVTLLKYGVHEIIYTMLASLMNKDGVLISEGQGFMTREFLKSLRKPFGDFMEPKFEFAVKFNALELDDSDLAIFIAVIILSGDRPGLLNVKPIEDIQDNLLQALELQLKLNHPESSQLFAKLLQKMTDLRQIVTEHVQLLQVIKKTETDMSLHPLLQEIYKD
# Method: PPARγ ligand binding assay. Human PPARγ binding was quantified using the PolarScreen^TM PPARγ-Competitor Assay Kit (Invitrogen, Carlsbad, CA), according to the manufacturer’s instructions. […] Displacement of the fluorescent ligand, which has high polarization when bound to the PPARγ-LBD and low polarization when not bound, was assessed by measuring loss of fluorescence polarization using a SpectraMax M5 plate reader (Molecular Devices, Sunnyvale, CA). We calculated the IC50 (concentration required to reduce effect by 50%) and dissociation constants to compare the potency of the binding. Dissociation constants were calculated according to the following equation:
# IC50/[PPARγ green] = Kd,ligand/Kd,probe,
# where Kd,probe is the dissociation constant calculated from titration of 1.25 nM Fluormone™ PPARγ green with the PPARγ LBD.
# pregnane X receptor = tested on: pregnane X receptor; set-up: method as in earlier work; settings: ref Honkakoski et al. 2004; Kojima et al. 2013; Suzuki et al. 2013; cited from earlier work
# estrogen receptor = tested on: estrogen receptor; set-up: method as in earlier work; settings: ref Honkakoski et al. 2004; Kojima et al. 2013; Suzuki et al. 2013; cited from earlier work
# [3] = tested on: perilipin expression in BMS2 cells; test: Perilipin protein expression (immunoblot) in BMS2 cells; settings: BMS2, 7 days
# BMS2 cells [4] = settings: 12 days; as high as 10 μg/mL (20 μM) FM550 or 20 μM TPP
# Method: (§1) Cell viability assays. […] Apoptosis and necrosis were assessed by caspase-3 activity (Caspase-Glo® 3/7 Assay; Promega) and dead cell protease release (CytoTox-Glo™ Cytotoxicity Assay; Promega), respectively, according to the manufacturer’s instructions.
# [5] = tested on: primary mouse bone marrow cultures; test: Alkaline phosphatase activity in primary bone marrow cultures; settings: 12 days; FM550 at 5 μg/mL (10 μM)
# BMS2 cells [6] = test: Necrosis by dead cell protease release (CytoTox-Glo) in BMS2 cultures; settings: 12 days; as high as 10 μg/mL (20 μM) FM550 or 20 μM TPP
# Method: as §1
# progesterone receptor = tested on: progesterone receptor; set-up: method as in earlier work; settings: ref Honkakoski et al. 2004; Kojima et al. 2013; Suzuki et al. 2013; cited from earlier work
# [7] = tested on: primary mouse bone marrow cultures; test: Lipid accumulation (Nile red) in primary bone marrow cultures under osteogenic induction; settings: 12 days, molar value of FM550 estimated
# [8] = tested on: Fabp4 mRNA in primary mouse bone marrow cultures; test: Fabp4 mRNA expression (qPCR) in primary bone marrow cultures; type: cell-based; settings: 7 days
# [9] = tested on: constitutive androstane receptor; set-up: method as in earlier work; settings: ref Honkakoski et al. 2004; Kojima et al. 2013; Suzuki et al. 2013; cited from earlier work
# [10] = tested on: Sp7 mRNA in primary mouse bone marrow cultures; test: Sp7 (Osterix) mRNA expression (qPCR) in primary bone marrow cultures; type: cell-based; settings: 7 days
# BMS2 cells [11] = tested on: BMS2 cells
# BMS2 cells [12] = test: Lipid accumulation (Nile red) in BMS2 cells
# [13] = tested on: primary mouse bone marrow cultures; test: Mineralization (Alizarin red) in primary bone marrow cultures; settings: 12 days; FM550 at 5 μg/mL (10 μM)
# human PPARγ1 = human PPARγ1 (Homo sapiens, UniProt P37231); test: PPRE-luciferase reporter assay in Cos-7 cells transfected with human PPARG1 and RXRA; type: cell-based
# Description: Reporter assays. Cos-7 cells were transiently transfected with vectors containing human PPARG1 (provided by V.K. Chatterjee, University of Cambridge, Cambridge, UK) ([Gurnell et al. 2000]) and human RXRA (plasmid 8882; Addgene, Cambridge, MA) ([Tontonoz et al. 1994]), with PPRE x3-TK-luc (plasmid 1015; Addgene) ([Kim et al. 1998]) and CMV-eGFP reporter constructs using Lipofectamine2000 (Invitrogen). Cultures were cotransfected with either pcDNA3 (Invitrogen) or dominant negative human PPARG (PPARγ-DN; provided by V.K. Chatterjee). […] After 24 hr incubation, cells were lysed in Glo Lysis Buffer and mixed with Bright Glo reagent (both from Promega, Madison, WI). […] Luminescence was normalized by GFP (green fluorescent protein) fluorescence in the same well. The normalized luminescence for each well was then divided by the normalized luminescence measured in control DN-PPARγ–transfected wells to determine the fold-change from DN-control.
# glucocorticoid receptor = tested on: glucocorticoid receptor; set-up: method as in earlier work; settings: ref Honkakoski et al. 2004; Kojima et al. 2013; Suzuki et al. 2013; cited from earlier work
# PPARγ = tested on: PPARγ; set-up: method as in Springer et al. 2012; settings: in vitro; ref Springer et al. 2012; cited from earlier work
# NIH 3T3L1 cells = tested on: NIH 3T3L1 cells; set-up: method as in Springer et al. 2012; settings: ref Springer et al. 2012; cited from earlier work
# PPARα = tested on: PPARα; set-up: method as in Springer et al. 2012; settings: in vitro; ref Springer et al. 2012; cited from earlier work
# human PPARγ1, sequence (P19793 whole entry): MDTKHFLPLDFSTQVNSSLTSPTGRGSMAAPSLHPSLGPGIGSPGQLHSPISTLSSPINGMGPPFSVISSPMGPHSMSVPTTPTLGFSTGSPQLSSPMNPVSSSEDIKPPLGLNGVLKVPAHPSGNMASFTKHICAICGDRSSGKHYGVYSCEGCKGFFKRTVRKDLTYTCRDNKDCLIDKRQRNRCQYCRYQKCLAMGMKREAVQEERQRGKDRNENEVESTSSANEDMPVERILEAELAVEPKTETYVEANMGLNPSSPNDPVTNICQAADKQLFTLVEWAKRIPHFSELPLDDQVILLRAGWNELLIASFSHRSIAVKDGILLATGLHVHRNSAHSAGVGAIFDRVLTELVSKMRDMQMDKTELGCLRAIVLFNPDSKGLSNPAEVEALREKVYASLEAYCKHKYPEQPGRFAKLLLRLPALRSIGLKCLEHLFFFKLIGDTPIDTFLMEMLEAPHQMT
# human PPARγ1, sequence (P37231 29-505): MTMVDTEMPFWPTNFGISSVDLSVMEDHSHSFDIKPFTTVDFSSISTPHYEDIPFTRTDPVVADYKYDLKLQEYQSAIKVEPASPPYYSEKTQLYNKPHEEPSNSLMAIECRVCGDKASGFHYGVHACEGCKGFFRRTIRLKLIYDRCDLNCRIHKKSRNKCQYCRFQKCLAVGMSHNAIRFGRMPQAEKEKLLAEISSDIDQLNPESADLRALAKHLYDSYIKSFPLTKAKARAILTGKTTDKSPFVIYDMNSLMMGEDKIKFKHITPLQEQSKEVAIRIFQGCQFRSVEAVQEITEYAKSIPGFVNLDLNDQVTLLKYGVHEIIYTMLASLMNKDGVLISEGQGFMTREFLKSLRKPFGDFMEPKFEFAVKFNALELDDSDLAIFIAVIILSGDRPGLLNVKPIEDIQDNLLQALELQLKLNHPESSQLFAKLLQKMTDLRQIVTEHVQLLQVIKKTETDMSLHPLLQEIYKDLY
smiles,measurement,setting,value
"CCCCC(CC)COC(=O)c1c(Br)c(Br)c(Br)c(Br)c1C(=O)OCC(CC)CCCC (centres unmarked) [TBPH, bis-(2-ethylhexyl) tetrabromophthalate]",metabolism into the monoester,[1],minimally metabolized into the monoester
same,binding to PPARγ LBD,[2],did not demonstrate any binding
"O=P(Oc1ccccc1)(Oc1ccccc1)Oc1ccccc1 [TPP, triphenyl phosphate]",pregnane X receptor–mediated reporter activity,pregnane X receptor,activating
same,estrogen receptor–mediated reporter activity,estrogen receptor,activating
same,perilipin expression,[3],induced the expression of perilipin
same,caspase-3 activity,BMS2 cells [4],no increase in caspase-3 activity
same,alkaline phosphatase activity,[5],significantly suppressed
same,necrotic protein release,BMS2 cells [6],no increase in necrotic protein release
same,progesterone receptor–mediated reporter activity,progesterone receptor,antagonizing
same,concentration inducing lipid accumulation,[7],10 µM
same,Fabp4 mRNA expression,[8],significantly increased mRNA expression of Fabp4
same,constitutive androstane receptor–mediated reporter activity,[9],activating
same,Sp7 mRNA expression,[10],significant decrease in mRNA expression of Sp7
same,IC50,[2],38 µM
same,Kd,[2],20 µM
same,cellularity (MTT),"BMS2 cells [11]; 24 hr, as high as 40 μg/mL (90 μM) FM550, 40 μM TPP, 40 μg/mL (100 μM) ITP",no loss of cellularity
same,cellularity (MTT),"BMS2 cells [11]; 7 days, as high as 20 μg/mL (50 μM) FM550, 20 μM TPP, 10 μg/mL (30 μM) ITP",no loss of cellularity
same,cellularity (MTT),"BMS2 cells [11]; 12 days, as high as 10 μg/mL (20 μM) FM550 or 20 μM TPP",no loss of cellularity
same,maximal lipid accumulation,"BMS2 cells [12]; 7 days, naive-corrected, rosiglitazone at 1 μM",614 ± 60 RFUs
same,concentrations significantly inducing lipid accumulation,"BMS2 cells [12]; BMS2, 7 days, molar values of FM550 and ITP estimated",≥ 5 µM
same,mineralization,[13],significantly suppressed only alkaline phosphatase activity
same,EC50,human PPARγ1,8 µM
same,concentrations significantly inducing PPARγ-driven reporter activity,"human PPARγ1; Cos7, 24 hr, molar values of FM550 and ITP estimated",≥ 10 µM
same,maximal PPARγ-driven reporter activity,"human PPARγ1; fold-change from DN-control, 24 hr, rosiglitazone at 1 μM",7.5 ± 0.7 fold
same,glucocorticoid receptor–mediated reporter activity,glucocorticoid receptor,antagonizing
"CCCCC(CC)COC(=O)c1cc(Br)c(Br)c(Br)c1Br (centres unmarked) [TBB, tetrabromobenzoate]",binding to PPARγ LBD,[2],did not demonstrate any binding
CCCCC(CC)COC(=O)c1c(Br)c(Br)c(Br)c(Br)c1C(=O)O (centres unmarked) [mono-(2-ethylhexyl) tetrabromophthalate],PPARγ-mediated gene transcription,PPARγ,activated
same,adipocyte differentiation,NIH 3T3L1 cells,induced adipocyte differentiation
same,PPARα-mediated gene transcription,PPARα,activated
